Results reported in US20130252950A1, “TARGETING MTOR SUBSTRATES IN TREATING PROLIFERATIVE DISEASES” (President and Fellows of Harvard College, priority 2010, published 2013).

Experiments:
[1] = test system: Grb10 protein in TSC1−/− cells; test: Immunoblot of Grb10 protein level in TSC1−/− cells; format: cell-based, mouse
Procedure: (§1) FIG. 9. Phosphorylation of Grb10 at S501/S503 regulates its stability. […] Preincubation of the antibody with the […] completely eliminated the immunoreactivity. (B) Further validation of the phospho-specific antibody raised against the Grb10 S501/S503 sites. Grb10 WT, S501A/S503A (AA) and S501D/S503D (DD) were transfected into HEK239T cells and were probed with the antibody. Note that this antibody detected wild type (WT) Grb10, but neither of the mutant proteins. (C) Treatment of TSC2−/− cells with various mTOR kinase inhibitors led to Grb10 degradation. […] (E) Grb10 is highly overexpressed in TSC1−/− cells compared with their wild-type counterparts. (F) rapamycin treatment of TSC2−/− cells stably expressing wild type (WT) Grb10 led to lower levels of both endogenous and exogenous Grb10.
(§2) In addition, long-term treatment with mTOR kinase inhibitors, including LY-294002, NVP-BEZ235, torin and pp 242 all led to reduced Grb10 protein expression (FIG. 9C). Similar results were obtained in TSC1−/− MEFs (FIG. 9D). In contrast, we found Grb10 was highly overexpressed in TSC2−/− and TSC1−/− MEFs compared with their wild-type counterparts (FIGS. 3E and 9E), correlating with elevated mTORC1 activity in these cells.

[2] = test system: Grb10 S501/S503 phosphorylation in TSC2−/− cells; test: Immunoblot of Grb10 S501/S503 phosphorylation with phospho-specific antibody; format: cell-based, mouse; conditions: serum-starved TSC2−/− cells, two hours; rapamycin 20 nM, staurosporine 100 nM, LY294002 20 μM, BEZ235 500 nM, torin 100 nM, pp 242 1 μM, Ku-0063794 at indicated concentrations
Procedure: (§3) FIG. 2. Phosphorylation of Grb10 at S501/S503 is sensitive to rapamycin inhibition. (A) Identification of a doubly-phosphorylated rapamycin-sensitive Grb10 peptide (MNILSS*QS*[…] , SEQ ID NO: 2, * indicates phosphorylation sites) corresponding to S501/S503. (B) Evolutionary conservation of Grb10 S501/S503 among vertebrate species. […] TSC2−/− cells were starved for serum and treated with 20 nM rapamycin for the indicated times. Sequences, from top to bottom: SEQ ID NO: 1723 to SEQ ID NO: 1727, respectively. (D) Phosphorylation of Grb10 at S501/501 is sensitive to amino acids withdrawal. TSC2−/− cells were starved in DMEM overnight and then transferred to D-PBS for the indicated times. (E) Phosphorylation of Grb10 at S501/S503 is not affected by the pan-kinase inhibitor, staurosporine. TSC2−/− cells were starved for serum and treated with either 100 nM staurosporine or Ku-0063794 at the indicated concentrations for two hours. (F) Grb10 phosphorylation is increased upon growth factor stimulation. Wild type (WT) mouse embryonic fibroblasts (MEFs) were starved for serum overnight and then were stimulated with insulin (100 nM) or serum (10%) for 15 min. The cells were preincubated with the indicated compounds for two hours. […] Rapamycin (rapa) was used at 20 nM. (G) Grb10 phosphorylation at S501/S503 is sensitive to various mTOR kinase inhibitors. TSC2−/− cells were serum-starved and treated with the indicated compounds for two hours. The concentrations of the compounds were rapamycin 20 nM, LY (LY294002) 20 μM, BEZ235 (NVP-BEZ235) 500 nM, torin 100 nM, and pp 242 1 μM.
We developed a phosphospecific antibody (FIGS. 9A and 9B) to further characterize these two Grb10 phosphorylation sites. […] The dephosphorylation kinetics correlated well with that of S6K.
We further investigated the effects of growth factor stimulation and rapamycin-mediated inhibition on Grb10 phosphorylation in other cell types. Wild-type MEFs were serum-starved and then stimulated with either insulin or 10% serum, both of which led to a robust increase in Grb10 phosphorylation (FIG. 2F). […] It was previously reported that Grb10 S503 (S476 in human Grb10 isoform 3) was phosphorylated by ERK1/2 in vitro (13).

[3] = test system: Grb10 protein in TSC2−/− cells; test: Immunoblot of Grb10 protein level after long-term treatment; format: cell-based, mouse; conditions: TSC2−/− cells, endogenous Grb10
Source text: FIG. 3. mTOR-mediated Grb10 phosphorylation is important for Grb10 stability. (A) Grb10 interacts with raptor, but not rictor. HA-tagged Grb10 was co-transfected with Myc-raptor or Myc-rictor in HEK293T cells. Cells were lysed in lysis buffer A, and the lysates were subjected to immunoprecipitation using anti-HA antibody conjugated beads. Raptor and rictor were probed with an antibody against the Myc-tag. (B) Grb10 is phosphorylated by mTOR in vitro. […] Phosphorylation of Grb10 at S501/S503 was detected by using the phospho-specific antibody against these two sites. (C) Long-term rapamycin treatment leads to Grb10 degradation in TSC2−/− cells. Note that Grb10 protein expression levels inversely correlated with Akt activity. Grb10 is highly overexpressed in TSC2−/− cells. mRNA level was determined using quantitative RT-PCR based on three biological replicate experiments. (D) Knockdown of raptor in TSC2−/− cells decreased Grb10 protein level. Cells were starved overnight and the lysates were probed with the antibodies indicated. (E) Grb10 is highly overexpressed in TSC2−/− cells. (F) S501A/S503A mutant is unstable compared with the wild-type or the S501D/S503D mutant. The same amount of DNA was transfected into HEK293T cells. […] Endogenous Grb10 was detected using an antibody that preferentially recognizes mouse Grb10 whereas the Grb10 DD mutant (of human origin) was detected using an anti-HA antibody.
as §1
as §2, with “cells. […]” for “cells.”

[4] = test system: rpS6 phosphorylation in TSC2−/− cells; test: Immunoblot of rpS6 phosphorylation (S6K activity); format: cell-based, mouse; conditions: serum-starved TSC2−/− cells, 100 nM staurosporine, two hours
Procedure: as §3, with “TSC2−/− cells were serum-starved and treated with the indicated compounds for two hours. The concentrations of the compounds were rapamycin 20 nM, LY (LY294002) 20 μM, BEZ235 (NVP-BEZ235) 500 nM, torin 100 nM, and pp 242 1 μM.” left out

[5] = test system: Grb10 S501/S503 phosphorylation in wild type (WT) MEFs; test: Immunoblot of Grb10 phosphorylation after insulin or serum stimulation; format: cell-based, mouse; conditions: serum-starved WT MEFs, preincubated two hours (rapamycin 20 nM, AZD6244 5 μM), insulin 100 nM or serum 10% 15 min
Procedure: as §3, with “TSC2−/− cells were serum-starved and treated with the indicated compounds for two hours. The concentrations of the compounds were rapamycin 20 nM, LY (LY294002) 20 μM, BEZ235 (NVP-BEZ235) 500 nM, torin 100 nM, and pp 242 1 μM.” left out

[6] = test system: ERK in wild type (WT) MEFs; test: Immunoblot of ERK activity after growth factor stimulation; format: cell-based, mouse; conditions: serum-starved WT MEFs, AZD6244 5 μM two hours, insulin or serum 15 min
Procedure: as §3, with “TSC2−/− cells were serum-starved and treated with the indicated compounds for two hours. The concentrations of the compounds were rapamycin 20 nM, LY (LY294002) 20 μM, BEZ235 (NVP-BEZ235) 500 nM, torin 100 nM, and pp 242 1 μM.” left out

[7] = test system: phospho-mTOR S2481 in TSC2−/− cells; test: Immunoblot of mTOR S2481 phosphorylation; format: cell-based, mouse; conditions: starved TSC2−/− cells; 20 nM rapamycin acute treatment; pp 242 two hours
wild-type MEFs = test: Ku-0063794 screen: SILAC quantitative phosphoproteomics in rapamycin-inhibited, insulin-stimulated cells
Akt phosphorylation = test: Immunoblot of insulin-induced Akt phosphorylation; conditions: FIG. 5C
Procedure: For the Ku-screen, wild-type MEFs were grown in light and heavy SILAC media and starved overnight for serum. […] Both the light and heavy cell were subsequently stimulated with insulin for 15 minutes and samples were pooled and analyzed by quantitative mass spectrometry.
Samples were boiled for 5 min and subject to electrophoresis using the standard SDS-PAGE method. Proteins were then transferred to a nitrocellulose membrane (Whatman). The membranes were blocked with a TBST buffer (25 mM Tris-HCl, pH 7.5, 150 mM NaCl, 0.05% Tween 20) containing 3% nonfat dried milk, and probed overnight with primary antibodies at 4° C. and for 1 h at RT with peroxidase-conjugated secondary antibodies. Blots were developed using enhanced chemiluminescence, exposed on autoradiograph film and developed using standard methods.

[8] = target: T1, Myc-tagged rictor (pRK5-Myc-Rictor) (UniProt Q6R327 1-1708); test: co-immunoprecipitation with anti-HA beads from co-transfected HEK293T cells, anti-Myc blot
T1 construct: Co-overexpressed with HA-Grb10 in HEK293T cells; not shown: Myc tag
T1 sequence (Q6R327 whole entry): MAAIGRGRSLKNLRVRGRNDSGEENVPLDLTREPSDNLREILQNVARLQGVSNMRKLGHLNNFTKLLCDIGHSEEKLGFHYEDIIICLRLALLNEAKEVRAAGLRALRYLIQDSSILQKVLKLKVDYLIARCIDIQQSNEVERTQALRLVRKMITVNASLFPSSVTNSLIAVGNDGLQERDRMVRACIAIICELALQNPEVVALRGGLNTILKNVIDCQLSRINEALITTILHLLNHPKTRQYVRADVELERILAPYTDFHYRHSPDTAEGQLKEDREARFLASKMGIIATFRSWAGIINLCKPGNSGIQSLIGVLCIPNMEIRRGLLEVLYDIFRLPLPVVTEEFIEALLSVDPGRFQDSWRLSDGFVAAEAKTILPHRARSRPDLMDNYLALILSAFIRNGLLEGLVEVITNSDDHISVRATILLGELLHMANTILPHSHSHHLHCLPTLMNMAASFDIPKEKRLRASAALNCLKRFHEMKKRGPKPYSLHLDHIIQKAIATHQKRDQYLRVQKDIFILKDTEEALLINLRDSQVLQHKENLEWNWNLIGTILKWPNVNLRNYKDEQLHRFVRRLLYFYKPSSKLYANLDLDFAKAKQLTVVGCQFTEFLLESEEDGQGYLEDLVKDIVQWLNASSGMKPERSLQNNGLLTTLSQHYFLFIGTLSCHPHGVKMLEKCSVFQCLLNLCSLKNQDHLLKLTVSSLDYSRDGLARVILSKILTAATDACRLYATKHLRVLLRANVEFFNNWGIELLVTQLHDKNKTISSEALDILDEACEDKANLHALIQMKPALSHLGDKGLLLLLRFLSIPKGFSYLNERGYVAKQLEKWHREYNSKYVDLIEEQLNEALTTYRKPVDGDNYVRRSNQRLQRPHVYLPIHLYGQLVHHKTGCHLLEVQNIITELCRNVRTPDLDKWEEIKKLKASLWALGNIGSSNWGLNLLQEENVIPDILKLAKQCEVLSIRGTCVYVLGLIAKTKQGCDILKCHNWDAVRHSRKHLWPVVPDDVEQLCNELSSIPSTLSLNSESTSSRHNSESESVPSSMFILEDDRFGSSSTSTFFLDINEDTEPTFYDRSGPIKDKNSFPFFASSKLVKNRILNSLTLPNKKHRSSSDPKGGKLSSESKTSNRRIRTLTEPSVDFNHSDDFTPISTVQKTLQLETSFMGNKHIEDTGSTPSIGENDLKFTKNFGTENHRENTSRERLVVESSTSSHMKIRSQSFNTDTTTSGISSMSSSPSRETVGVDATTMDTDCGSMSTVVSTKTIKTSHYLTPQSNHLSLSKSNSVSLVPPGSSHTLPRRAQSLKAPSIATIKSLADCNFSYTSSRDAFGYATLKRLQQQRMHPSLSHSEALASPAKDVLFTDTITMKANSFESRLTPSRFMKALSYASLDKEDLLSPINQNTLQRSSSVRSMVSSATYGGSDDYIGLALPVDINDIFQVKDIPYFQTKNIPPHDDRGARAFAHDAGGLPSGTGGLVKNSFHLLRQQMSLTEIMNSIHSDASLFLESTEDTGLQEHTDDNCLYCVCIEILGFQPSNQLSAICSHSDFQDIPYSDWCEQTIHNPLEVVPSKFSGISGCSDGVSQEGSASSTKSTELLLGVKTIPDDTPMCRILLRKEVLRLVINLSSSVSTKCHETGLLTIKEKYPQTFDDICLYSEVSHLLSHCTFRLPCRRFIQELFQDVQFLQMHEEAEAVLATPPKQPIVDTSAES

[9] = downregulated phosphorylation, wt MEFs, 20 nM rapamycin + 2 μM Ku-0063794 2 h vs rapamycin alone, insulin 15 min

Cn1c(=O)n(-c2ccc(C(C)(C)C#N)cc2)c2c3cc(-c4cnc5ccccc5c4)ccc3ncc21 [NVP-BEZ235]
level of Grb10 in TSC1−/− cells [1]: decreased level
Grb10 S501/S503 phosphorylation (immunoblot) [2]: completely abolished
Grb10 protein levels after long-term treatment [3]: reduced

CCC(=O)N1CCN(c2ccc(-n3c(=O)ccc4cnc5ccc(-c6cnc7ccccc7c6)cc5c43)cc2C(F)(F)F)CC1 [torin]
Grb10 S501/S503 phosphorylation (immunoblot) [2]: completely abolished
Grb10 protein levels after long-term treatment [3]: reduced

CN[C@@H]1C[C@H]2O[C@@](C)([C@@H]1OC)n1c3ccccc3c3c4c(c5c6ccccc6n2c5c31)C(=O)NC4 [staurosporine]
rpS6 phosphorylation (S6K activity) [4]: complete loss
Grb10 S501/S503 phosphorylation (immunoblot) [2]: No change

Cn1cnc2c(F)c(Nc3ccc(Br)cc3Cl)c(C(=O)NOCCO)cc21 [AZD6244]
insulin- or serum-induced Grb10 S501/S503 phosphorylation [5]: no effect
activities of ERK [6]: completely abolished

CC(C)n1nc(-c2cc3cc(O)ccc3[nH]2)c2c(N)ncnc21 [pp 242]
mTOR S2481 phosphorylation (immunoblot) [7]: completely ablated
Grb10 S501/S503 phosphorylation (immunoblot) [2]: completely abolished
Grb10 protein levels after long-term treatment [3]: reduced

COc1ccc(-c2ccc3c(N4CCOCC4)nc(N4C[C@@H](C)O[C@@H](C)C4)nc3n2)cc1CO [Ku-0063794]
4EBP T36/T45 phosphorylation (FIG. 6A) (wild-type MEFs; Ku-0063794 screen): completely abolished
intensity of T70 singly phosphorylated 4EBP1 peptide (wild-type MEFs; Ku-0063794 screen): did not change
rpS6 S235/236 phosphorylation (Class I site) (wild-type MEFs; Ku-0063794 screen, rapamycin-inhibited background): not further decreased
Median (treated/ctrl) fold-change of phosphopeptide DRSSS*APNVHINTIEPVNIDDLIR, Braf S312 (wild-type MEFs; [9]): 2.1 fold
Median (treated/ctrl) fold-change of phosphopeptide Eif4ebp1 T36, T45 (wild-type MEFs; [9]): 7.2 fold
Median (treated/ctrl) fold-change of phosphopeptide Eif4ebp2 S65 (wild-type MEFs; [9]): 6.8 fold
Median (treated/ctrl) fold-change of phosphopeptide LGS*FGSITR, Flnc S2234 (wild-type MEFs; [9]): 2.4 fold
Median (treated/ctrl) fold-change of phosphopeptide LNT*SDFQK, Akt1s1 T247 (wild-type MEFs; [9]): 31.3 fold
Median (treated/ctrl) fold-change of phosphopeptide TAS*GSS*VTSLEGTR, Ndrg1 S330, S333 (wild-type MEFs; [9]): 4.1 fold
Median (treated/ctrl) fold-change of phosphopeptide TGS*ESSQTGASATSGR, Eif4b S422 (wild-type MEFs; [9]): 2.2 fold
Median (treated/ctrl) fold-change of phosphopeptide TTS*FAESCKPVQQPSAFGSMK, Gsk3β S9 (wild-type MEFs; [9]): ~2.2 fold
insulin-induced Akt phosphorylation (Akt phosphorylation): inhibits
Grb10 S501/S503 phosphorylation (immunoblot) [2]: dose-dependent dephosphorylation

B1: HA-tagged Grb10 (human growth factor receptor-bound protein 10, wild type) (other, UniProt Q13322-3 1-536, looked up)
chain: MNASLESLYSACSMQSDTVPLLQNGQHARSQPRASGPPRSIQPQVSPRQRVQRSQPVHILAVRRLQEEDQQFRTSSLPAIPNPFPELCGPGSPPVLTPGSLPPSQAAAKQDVKVFSEDGTSKVVEILADMTARDLCQLLVYKSHCVDDNSWTLVEHHPHLGLERCLEDHELVVQVESTMASESKFLFRKNYAKYEFFKNPMNFFPEQMVTWCQQSNGSQTQLLQNFLNSSSCPEIQGFLHVKELGKKSWKKLYVCLRRSGLYCSTKGTSKEPRHLQLLADLEDSNIFSLIAGRKQYNAPTDHGLCIKPNKVRNETKELRLLCAEDEQTRTCWMTAFRLLKYGMLLYQNYRIPQQRKALLSPFSTPVRSVSENSLVAMDFSGQTGRVIENPAEAQSAALEEGHAWRKRSTRMNILGSQSPLHPSTLSTVIHRTQHWFHGRISREESHRIIKQQGLVDGLFLLRDSQSNPKAFVLTLCHHQKIKNFQILPCEDDGQTFFSLDDGNTKFSDLIQLVDFYQLNKGVLPCKLKHHCIRVAL
notes: Expressed by transfection in HEK293T cells; The phospho-specific antibody recognises it in the form phosphorylated at S501/S503 (mouse isoform 1 numbering) in cells; also called WT-Grb10; Grb10 WT; not shown: HA tag from vector pKH3
binding result [8]: no binding
